From patent publication US7652153B2, “Caspase inhibitors and uses thereof” (Vertex Pharmaceuticals Incorporated, priority 2004, dated 2010)

Tests used:
caspase-8 = caspase-8 (Homo sapiens, UniProt Q14790); assay: Caspase-8 enzyme inhibition (Ki, method of Margolin et al.); assay type: biochemical; settings: Ac-DEVD-pNA substrate 80 μM, 37° C., pH 7.5; read-out: Ki C8
Method in brief: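 Caspase (0.5-40 nM active, by active-site titration) preincubated with inhibitor 15 min at 37° C in 10 mM Tris pH 7.5, 1 mM DTT, 0.1% CHAPS. Reaction started with Ac-DEVD-pNA (80 μM final), rate followed by absorbance at 405 nm; Ki from Morrison tight-binding fit for competitive inhibitors.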

caspase-1 = target: T1, caspase-1 (Homo sapiens, UniProt P29466); assay: Caspase-1 enzyme inhibition (Ki, method of Margolin et al.); assay type: biochemical; settings: Suc-YVAD-pNA substrate 80 μM, 37° C., pH 7.5; read-out: Ki C1
T1 sequence (P29466 120-297 limits assumed): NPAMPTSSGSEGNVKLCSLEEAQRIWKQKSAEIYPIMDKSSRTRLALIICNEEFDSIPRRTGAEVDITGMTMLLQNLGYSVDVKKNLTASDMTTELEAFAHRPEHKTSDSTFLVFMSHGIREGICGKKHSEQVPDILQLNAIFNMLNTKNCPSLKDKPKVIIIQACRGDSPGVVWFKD
T1 sequence (P29466 317-404 limits assumed): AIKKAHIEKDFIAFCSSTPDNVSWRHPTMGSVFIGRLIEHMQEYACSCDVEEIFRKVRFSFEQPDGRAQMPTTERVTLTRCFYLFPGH
Method in brief: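 Enzyme (0.5-40 nM active, by active-site titration) preincubated 15 min at 37° C with inhibitor in 10 mM Tris pH 7.5, 1 mM DTT, 0.1% CHAPS. Reaction started with Suc-YVAD-pNA (80 μM final), rate followed by absorbance at 405 nm at 37° C. Ki from Morrison tight-binding fit for competitive inhibitors.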

Chain of caspase-8 (Q14790 217-374 limits assumed, species assumed): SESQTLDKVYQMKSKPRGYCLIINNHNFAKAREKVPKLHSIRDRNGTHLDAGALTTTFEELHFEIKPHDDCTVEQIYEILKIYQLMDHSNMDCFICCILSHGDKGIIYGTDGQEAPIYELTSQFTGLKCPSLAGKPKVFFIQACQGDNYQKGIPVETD
Chain of caspase-8 (Q14790 385-479 limits assumed, species assumed): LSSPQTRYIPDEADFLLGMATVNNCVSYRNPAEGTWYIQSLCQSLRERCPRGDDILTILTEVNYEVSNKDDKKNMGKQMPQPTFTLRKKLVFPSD

`CC(=O)Nc1ccc(C(=O)N[C@H](C(=O)N2CCC[C@H]2C(=O)N[C@H](C=O)CC(=O)O)C(C)C)c(Cl)c1` [II-40, (S,S,S)-(3S)-({1-[(2S)-(2-chloro-4-acetamido-benzoylamino)-3-methyl-butyryl]-pyrrolidine-(2S)-carbonyl}-amino)-4-oxo-butyric acid] gave a Ki (caspase-8) of 10 to 20 nM and a Ki (caspase-1) of under 10 nM.

For `CC(=O)Nc1cccc(C(=O)N[C@H](C(=O)N2CCC[C@H]2C(=O)N[C@H](C=O)CC(=O)O)C(C)(C)C)c1Cl` [II-41, (S,S,S)-(3S)-({1-[(2S)-(2-Chloro-3-acetamido-benzoylamino)-3,3-dimethyl-butyryl]-pyrrolidine-(2S)-carbonyl}-amino)-4-oxo-butyric acid], the Ki (caspase-8) was under 10 nM and the Ki (caspase-1) was under 10 nM.

With `CC(=O)Nc1cccc(C(=O)N[C@H](C(=O)N2CCC[C@H]2C(=O)N[C@H](C=O)CC(=O)O)C(C)(C)C)c1C` [II-42, (S,S,S)-(3S)-({1-[(2S)-(2-methyl-3-acetamido-benzoylamino)-3,3-dimethyl-butyryl]-pyrrolidine-(2S)-carbonyl}-amino)-4-oxo-butyric acid] the Ki (caspase-8) was 10 to 20 nM and the Ki (caspase-1) was under 10 nM.

`CC(=O)Nc1ccc(C(=O)N[C@H](C(=O)N2CCC[C@H]2C(=O)N[C@H](C=O)CC(=O)O)C(C)(C)C)c(Cl)c1` [II-43, (S,S,S)-(3S)-({1-[(2S)-(2-chloro-4-acetamido-benzoylamino)-3,3-dimethyl-butyryl]-pyrrolidine-(2S)-carbonyl}-amino)-4-oxo-butyric acid] gave a Ki (caspase-8) of under 10 nM and a Ki (caspase-1) of under 10 nM.

With `CC(=O)Nc1ccc(C(=O)N[C@H](C(=O)N2CCC[C@H]2C(=O)N[C@H](C=O)CC(=O)O)C(C)(C)C)c(F)c1` [II-44, (S,S,S)-(3S)-({1-[(2S)-(2-fluoro-4-acetamido-benzoylamino)-3,3-dimethyl-butyryl]-pyrrolidine-(2S)-carbonyl}-amino)-4-oxo-butyric acid] the Ki (caspase-8) was under 10 nM and the Ki (caspase-1) was under 10 nM.

`CC(=O)Nc1ccc(C(=O)N[C@H](C(=O)N2CCC[C@H]2C(=O)N[C@H](C=O)CC(=O)O)C(C)C)c(F)c1` [II-45, (S,S,S)-(3S)-({1-[(2S)-(2-fluoro-4-acetamido-benzoylamino)-3-methyl-butyryl]-pyrrolidine-(2S)-carbonyl}-amino)-4-oxo-butyric acid] gave a Ki (caspase-8) of under 10 nM and a Ki (caspase-1) of under 10 nM.

With `CC(C)Oc1ccc(C(=O)N[C@H](C(=O)N2CCC[C@H]2C(=O)N[C@H](C=O)CC(=O)O)C(C)C)c(Cl)c1` [II-46, (S,S,S)-(3S)-({1-[(2S)-(2-chloro-4-isopropyloxy-benzoylamino)-3-methyl-butyryl]-pyrrolidine-(2S)-carbonyl}-amino)-4-oxo-butyric acid] the Ki (caspase-8) was 21 to 30 nM and the Ki (caspase-1) was under 10 nM.

For `CC(C)(C)[C@H](NC(=O)c1ccc(O)cc1Cl)C(=O)N1CCC[C@H]1C(=O)N[C@H](C=O)CC(=O)O` [II-47, (S,S,S)-(3S)-({1-[(2S)-(2-chloro-4-hydroxy-benzoylamino)-3,3-dimethyl-butyryl]-pyrrolidine-(2S)-carbonyl}-amino)-4-oxo-butyric acid], the Ki (caspase-8) was under 10 nM and the Ki (caspase-1) was under 10 nM.

`COCc1ccc(C(=O)N[C@H](C(=O)N2CCC[C@H]2C(=O)N[C@H](C=O)CC(=O)O)C(C)(C)C)c(Cl)c1` [II-48, (S,S,S)-(3S)-({1-[(2S)-(2-chloro-4-methoxymethyl-benzoylamino)-3,3-dimethyl-butyryl]-pyrrolidine-(2S)-carbonyl}-amino)-4-oxo-butyric acid] gave a Ki (caspase-8) of under 10 nM and a Ki (caspase-1) of under 10 nM.

In the case of `CC(C)C(=O)Nc1ccc(C(=O)N[C@H](C(=O)N2CCC[C@H]2C(=O)N[C@H](C=O)CC(=O)O)C(C)(C)C)c(Cl)c1` [II-49, (S,S,S)-(3S)-({1-[(2S)-(2-chloro-4-isobutyrylamido-benzoylamino)-3,3-dimethyl-butyryl]-pyrrolidine-(2S)-carbonyl}-amino)-4-oxo-butyric acid], the Ki (caspase-8) is reported as under 10 nM and the Ki (caspase-1) is reported as under 10 nM.

For `CC(=O)Nc1ccc(C(=O)N[C@H](C(=O)N2CCC[C@H]2C(=O)N[C@H](C=O)CC(=O)O)C2CCCCC2)c(Cl)c1` [II-50, (S,S,S)-(3S)-({1-[(2S)-(2-chloro-4-acetamido-benzoylamino)-3-cyclohexyl]-pyrrolidine-(2S)-carbonyl}-amino)-4-oxo-butyric acid], the Ki (caspase-8) was 21 to 30 nM and the Ki (caspase-1) was under 10 nM.

With `COC(=O)Nc1ccc(C(=O)N[C@H](C(=O)N2CCC[C@H]2C(=O)N[C@H](C=O)CC(=O)O)C(C)(C)C)c(Cl)c1` [II-51, (S,S,S)-(3S)-({1-[(2S)-(2-chloro-4-methoxycarbonylamino-benzoylamino)-3,3-dimethyl-butyryl]-pyrrolidine-(2S)-carbonyl}-amino)-4-oxo-butyric acid] the Ki (caspase-8) was under 10 nM and the Ki (caspase-1) was under 10 nM.

For `CC(C)(C)[C@H](NC(=O)c1cccc(Oc2ccccc2)c1Cl)C(=O)N1CCC[C@H]1C(=O)N[C@H](C=O)CC(=O)O` [II-52, (S,S,S)-(3S)-({1-[(2S)-(2-chloro-3-phenoxy-benzoylamino)-3,3-dimethyl-butyryl]-pyrrolidine-(2S)-carbonyl}-amino)-4-oxo-butyric acid], the Ki (caspase-8) was under 10 nM and the Ki (caspase-1) was under 10 nM.

`CC(C)[C@H](NC(=O)c1c(N)cccc1Cl)C(=O)N1CCC[C@H]1C(=O)N[C@H](C=O)CC(=O)O` [II-53, (S,S,S)-(3S)-({1-[(2S)-(2-chloro-6-amino-benzoylamino)-3-methyl-butyryl]-pyrrolidine-(2S)-carbonyl}-amino)-4-oxo-butyric acid] showed a Ki (caspase-8) of 21 to 30 nM and a Ki (caspase-1) of under 10 nM.
